Results published in paper PMC12473123, “Structure–Function Insights into Quinuclidine-3-One BisQACs: Synthesis, Modulation of Bacterial Resistance, Structure–Activity Relationship, and Biological Profiling” (Pharmaceuticals, 2025).

How the values were obtained:
[1] = test system: Staphylococcus aureus ATCC 33591 (methicillin-resistant); experiment: Broth microdilution MIC; assay type: cell-based; settings: Staphylococcus aureus, ATCC33591, read-out: Minimum Inhibitory Concentrations (MIC)
[2] = test system: Bacillus cereus ATCC 14579; experiment: Broth microdilution MIC; assay type: cell-based; settings: ATCC14579, read-out: Minimum Inhibitory Concentrations (MIC), Bacillus cereus ATCC 14579
[3] = test system: Enterococcus faecalis ATCC 29212; experiment: Broth microdilution MIC; assay type: cell-based; settings: Enterococcus faecalis, ATCC29212, read-out: Minimum Inhibitory Concentrations (MIC), Enterococcus faecalis ATCC 29212
[4] = test system: Salmonella enterica (food isolate); experiment: Broth microdilution MIC; assay type: cell-based; settings: read-out: Minimum Inhibitory Concentrations (MIC)
HEK293 cells = experiment: Cytotoxicity MTS assay; assay type: cell-based, human; settings: Homo sapiens, HEK293, 48 h, read-out: IC50 HEK293
Method: (§1) The cytotoxic potential of the selected drug candidates was evaluated using the CellTiter 96® AQueous One Solution Cell Proliferation Assay (Promega, Madison, WI, USA), following the manufacturer’s protocol. Human cell lines RPE1 and HEK293 were cultured at 37 °C in a humidified incubator with 5% CO2. Test compounds were dissolved in the appropriate growth medium and serially diluted across a range of concentrations in 96-well microtiter plates. Each well was seeded with 5000 cells and incubated for 48 h under standard culture conditions. Following this incubation period, 20 µL of MTS reagent was added to each well, and the plates were further incubated for 3 h to allow for color development. Absorbance was measured at 490 nm using a microplate reader to determine cell viability. Cytotoxicity was quantified as the half-maximal inhibitory concentration (IC50), defined as the concentration of compound that reduced cell viability by 50%. […] IC50 values were calculated using GraFit 6.0 software by plotting compound concentration against absorbance and fitting the data to a sigmoidal dose–response curve.

RPE1 cells = experiment: Cytotoxicity MTS assay; assay type: cell-based, human; settings: Homo sapiens, RPE-1, 48 h, read-out: IC50 RPE1
Method: as §1

[5] = test system: panel of clinically relevant bacterial strains; experiment: Broth microdilution MIC, summary over the panel; assay type: cell-based; settings: Staphylococcus aureus (including MRSA), Listeria monocytogenes, Escherichia coli
[6] = test system: Staphylococcus aureus ATCC 25923; experiment: Flow cytometry cell viability (TO/PI staining); assay type: cell-based; settings: at the onset of treatment, concentration not given
Method: To gain further insights into the effects of the test compounds on bacterial viability, Staphylococcus aureus ATCC 25923 was analyzed using flow cytometry (NovoCyte Advanteon, Agilent Technologies, Santa Clara, CA, USA). Two independent overnight cultures were diluted 1:10 in fresh Mueller–Hinton broth (MHB) and incubated at 37 °C with shaking at 220 rpm until reaching the early exponential growth phase. Cells were then harvested by centrifugation (4500× g, 10 min, room temperature). One cell pellet was resuspended in a staining buffer composed of phosphate buffer (pH 7.4) supplemented with 1 mM EDTA and 0.1% Tween 20. […] Both preparations were adjusted to a final density of 1 × 10^6 CFU/mL and served as controls for fluorescence compensation alongside an unstained bacterial population. Bacterial viability was assessed using the BD^TM Cell Viability Kit (BD Biosciences, San Jose, CA, USA), which employs thiazole orange (TO) and propidium iodide (PI) for dual fluorescence labeling. […] Flow cytometric analysis enabled the discrimination of live (TO+/PI−), damaged (TO+/PI+), and dead (TO−/PI+) bacterial populations based on their fluorescence profiles, allowing for a time-resolved evaluation of compound-induced cytotoxicity.

Compound | MIC [1] | MIC [2] | MIC [3] | MIC [4] | IC50 (HEK293 cells) | IC50 (RPE1 cells) | MIC [5] | cells with signs of membrane damage (TO+/PI+) [6] | fully viable cells (TO+/PI−) [6]
CCCCCCCCCCCCCCCCNC1C[N+]2(CCC[N+]34CCC(CC3)C(NCCCCCCCCCCCCCCCC)C4)CCC1CC2 (racemic) [2(QC16)3, (±)-1,1′-(Propane-1,3-diyl) bis(3-(hexadecylamino)quinuclidinium) dibromide] | 19 µM | > 75 µM | > 75 µM | > 75 µM | 21 µM | 69 µM | – | – | –
CCCCCCCCCCCCCCCCNC1C[N+]2(CCCCCC[N+]34CCC(CC3)C(NCCCCCCCCCCCCCCCC)C4)CCC1CC2 (racemic) [2(QC16)6, (±)-1,1′-(Hexane-1,6-diyl) bis(3-(hexadecylamino)quinuclidinium) dibromide] | 5 µM | – | – | 75 µM | 7 µM | 5 µM | 5 to 38 µM | over 80% | < 5%
